# From ChEMBL document CHEMBL4610038, “The synthesis of trifluoromethylated N-nitroaryl-2-amino-1,3-dichloropropane derivatives and their evaluation as potential anti-cancer agents” (Bioorg Med Chem Lett, 2020)
# Assays:
# [1] = test system: CNE; test: Cytotoxicity against human CNE1 cells assessed as cell viability at 100 uM relative to control; format: functional; conditions: read-out: Activity
# [2] = test system: MDA-MB-468; test: Cytotoxicity against human MDA-MB-468 cells assessed as cell viability at 100 uM relative to control; format: functional; conditions: read-out: Activity
# [3] = test system: Caco-2; test: Cytotoxicity against human Caco2 cells assessed as cell viability at 100 uM relative to control; format: functional; conditions: read-out: Activity
# [4] = test system: Caco-2; test: Cytotoxicity against human Caco2 cells assessed as reduction in cell viability; format: functional, cell-based
# [5] = Cytotoxicity against human HK1 cells assessed as reduction in cell viability; format: functional, cell-based; conditions: HK-1
# [6] = test system: MDA-MB-231; test: Cytotoxicity against human MDA-MB-231 cells assessed as reduction in cell viability; format: functional, cell-based
# [7] = test system: SW48; test: Cytotoxicity against human SW48 cells assessed as cell viability at 100 uM relative to control; format: functional; conditions: read-out: Activity
# [8] = test system: HT-29; test: Cytotoxicity against human HT-29 cells assessed as reduction in cell viability; format: functional, cell-based
# [9] = test system: HT-29; test: Cytotoxicity against human HT-29 cells assessed as cell viability at 100 uM relative to control; format: functional; conditions: read-out: Activity
# [10] = test system: MCF-10A; test: Cytotoxicity against human MCF10A cells assessed as reduction in cell viability; format: cell-based
# [11] = test system: A549; test: Cytotoxicity against human A549 cells assessed as cell viability at 100 uM relative to control; format: functional; conditions: read-out: Activity
# [12] = test system: SW48; test: Cytotoxicity against human SW48 cells assessed as reduction in cell viability; format: functional, cell-based
# [13] = test system: MDA-MB-468; test: Cytotoxicity against human MDA-MB-468 cells assessed as reduction in cell viability; format: functional, cell-based
# [14] = test system: MDA-MB-231; test: Cytotoxicity against human MDA-MB-231 cells assessed as cell viability at 100 uM relative to control; format: functional; conditions: read-out: Activity
# [15] = test system: T47D; test: Cytotoxicity against human T47D cells assessed as cell viability at 100 uM relative to control; format: functional; conditions: read-out: Activity
# [16] = test system: SH-SY5Y; test: Cytotoxicity against human SH-SY5Y cells assessed as reduction in cell viability; format: functional, cell-based
# [17] = test system: A549; test: Cytotoxicity against human A549 cells assessed as reduction in cell viability; format: functional, cell-based
# [18] = test system: SH-SY5Y; test: Cytotoxicity against human SH-SY5Y cells assessed as cell viability at 100 uM relative to control; format: functional; conditions: read-out: Activity
# [19] = test system: BXPC-3; test: Cytotoxicity against human BxPC3 cells assessed as cell viability at 100 uM relative to control; format: functional; conditions: read-out: Activity
# [20] = test system: SUNE1; test: Cytotoxicity against human SUNE1 cells assessed as reduction in cell viability; format: functional, cell-based
# [21] = test system: SUNE1; test: Cytotoxicity against human SUNE1 cells assessed as cell viability at 100 uM relative to control; format: functional; conditions: read-out: Activity
# [22] = test system: ASPC1; test: Cytotoxicity against human AsPC1 cells assessed as cell viability at 100 uM relative to control; format: functional; conditions: read-out: Activity
# [23] = test system: SK-BR-3; test: Cytotoxicity against human SKBR3 cells assessed as cell viability at 100 uM relative to control; format: functional; conditions: read-out: Activity
# [24] = test system: ASPC1; test: Cytotoxicity against human AsPC1 cells assessed as reduction in cell viability; format: functional, cell-based
# [25] = test system: HCT-116; test: Cytotoxicity against human HCT116 cells assessed as reduction in cell viability; format: functional, cell-based
# [26] = test system: NCI-H1299; test: Cytotoxicity against human H1299 cells assessed as reduction in cell viability; format: functional, cell-based
# [27] = Cytotoxicity against human MCF10A cells assessed as cell viability at 100 uM relative to control; format: cell-based, MCF-10A; conditions: read-out: Activity
# [28] = test system: NCI-H1299; test: Cytotoxicity against human H1299 cells assessed as cell viability at 100 uM relative to control; format: functional; conditions: read-out: Activity
# [29] = test system: T47D; test: Cytotoxicity against human T47D cells assessed as reduction in cell viability; format: functional, cell-based
# [30] = test system: MCF7; test: Cytotoxicity against human MCF7 cells assessed as cell viability at 100 uM relative to control; format: functional; conditions: read-out: Activity
# [31] = test system: CNE; test: Cytotoxicity against human CNE1 cells assessed as reduction in cell viability; format: functional, cell-based
# [32] = test system: SW1990; test: Cytotoxicity against human SW1990 cells assessed as cell viability at 100 uM relative to control; format: functional; conditions: read-out: Activity
# [33] = test system: BXPC-3; test: Cytotoxicity against human BxPC3 cells assessed as reduction in cell viability; format: functional, cell-based
# [34] = Cytotoxicity against human MRC5 cells assessed as cell viability at 100 uM relative to control; format: cell-based; conditions: read-out: Activity
# [35] = test system: SK-BR-3; test: Cytotoxicity against human SKBR3 cells assessed as reduction in cell viability; format: functional, cell-based
# [36] = test system: MCF7; test: Cytotoxicity against human MCF7 cells assessed as reduction in cell viability; format: functional, cell-based
# [37] = test system: HCT-116; test: Cytotoxicity against human HCT116 cells assessed as cell viability at 100 uM relative to control; format: functional; conditions: read-out: Activity
# [38] = test system: SW1990; test: Cytotoxicity against human SW1990 cells assessed as reduction in cell viability; format: functional, cell-based
# [39] = Cytotoxicity against human HK1 cells assessed as cell viability at 100 uM relative to control; format: functional; conditions: HK-1, read-out: Activity
# [40] = test system: MRC5; test: Cytotoxicity against human MRC5 cells assessed as reduction in cell viability; format: cell-based
structure (smiles),measurement,setting,value
O=[N+]([O-])c1cc(C(F)(F)F)ccc1NC(CO)CO,viability at 100 µM,[1],106%
same,viability at 100 µM,[2],100%
same,viability at 100 µM,[3],89.5%
same,IC50,[4],> 100 µM
same,IC50,[5],> 100 µM
same,IC50,[6],> 100 µM
same,viability at 100 µM,[7],98.8%
same,IC50,[8],> 100 µM
same,viability at 100 µM,[9],95.2%
same,IC50,[10],> 100 µM
same,viability at 100 µM,[11],57.9%
same,IC50,[12],> 100 µM
same,IC50,[13],> 100 µM
same,viability at 100 µM,[14],67.3%
same,viability at 100 µM,[15],68.6%
same,IC50,[16],> 100 µM
same,IC50,[17],> 100 µM
same,viability at 100 µM,[18],84.9%
same,viability at 100 µM,[19],108%
same,IC50,[20],> 100 µM
same,viability at 100 µM,[21],83.4%
same,viability at 100 µM,[22],81.8%
same,viability at 100 µM,[23],66.4%
same,IC50,[24],> 100 µM
same,IC50,[25],> 100 µM
same,IC50,[26],> 100 µM
same,viability at 100 µM,[27],102%
same,viability at 100 µM,[28],91.3%
same,IC50,[29],> 100 µM
same,viability at 100 µM,[30],57.4%
same,IC50,[31],> 100 µM
same,viability at 100 µM,[32],68.5%
same,IC50,[33],> 100 µM
same,viability at 100 µM,[34],64.9%
same,IC50,[35],> 100 µM
same,IC50,[36],> 100 µM
same,viability at 100 µM,[37],83.9%
same,IC50,[38],> 100 µM
same,viability at 100 µM,[39],92.9%
same,IC50,[40],> 100 µM
O=[N+]([O-])c1ccc(NC(CO)CO)c([N+](=O)[O-])c1,viability at 100 µM,[1],102%
same,viability at 100 µM,[2],106%
same,viability at 100 µM,[3],102%
same,IC50,[4],> 100 µM
same,IC50,[5],> 100 µM
same,IC50,[6],> 100 µM
same,viability at 100 µM,[7],88.2%
same,IC50,[8],> 100 µM
same,viability at 100 µM,[9],89.6%
same,IC50,[10],> 100 µM
same,viability at 100 µM,[11],77.4%
same,IC50,[12],> 100 µM
same,IC50,[13],> 100 µM
same,viability at 100 µM,[14],79.4%
same,viability at 100 µM,[15],79.9%
same,IC50,[16],> 100 µM
same,IC50,[17],> 100 µM
same,viability at 100 µM,[18],86.1%
same,viability at 100 µM,[19],104%
same,IC50,[20],> 100 µM
same,viability at 100 µM,[21],106%
same,viability at 100 µM,[22],108%
same,viability at 100 µM,[23],98.9%
same,IC50,[24],> 100 µM
same,IC50,[25],> 100 µM
same,IC50,[26],> 100 µM
same,viability at 100 µM,[27],105%
same,viability at 100 µM,[28],89.8%
same,IC50,[29],> 100 µM
same,viability at 100 µM,[30],55.5%
same,IC50,[31],> 100 µM
same,viability at 100 µM,[32],65.8%
same,IC50,[33],> 100 µM
same,viability at 100 µM,[34],78.9%
same,IC50,[35],> 100 µM
same,IC50,[36],> 100 µM
same,viability at 100 µM,[37],81.9%
same,IC50,[38],> 100 µM
same,viability at 100 µM,[39],103%
same,IC50,[40],> 100 µM
